In PubChem BioAssay AID1919000 (Molecular Pharmacology Branch, DTP, NCI, 2023):
Several values for one entry are separate records, joined by “and”; a condition that tells them apart may be missing. Equal values may be shown once.

Test system: 653999-131-R-J2-PDC complex spheroids, growth % test/control
Assay: Anticancer human tumor 653999-131-R-J2-PDC patient-derived lung adenocarcinoma cell line growth inhibition [AhR]
Conditions: for viability, T/C: stronger effect = lower value; active means viability on the fitted dose curve at most 10% of control; inactive means the rest
Excerpt: Multicellular complex tumor spheroid response to aryl hydrocarbon receptor antagonists in combination with a variety of drugs and investigational agents in selected tumor cell lines
The current study was undertaken to assess response to aryl hydrocarbon receptor antagonists in combination with standard-of-care drugs and investigational agents in solid tumor complex spheroid models. Complex spheroids include a stromal component modeled by human endothelial cells (HUVEC) and fibroblasts modeled by human mesenchymal stem cells (MSCs). The concentration ranges selected for each drug and investigational agent were based upon clinically achievable concentrations if the clinical Cmax of the agent was known.
Compounds. The drugs and investigational agents: BAY 2416964 (NSC825713), GNF351 (NSC835774), CH-223191 (NSC835775), CPI-455 (NSC825282), aza-TdCyd (NSC777586), decitabine (NSC127716), belinostat (NSC758774), entinostat (NSC756642), pevonedistat (NSC761192), tazemetostat (NSC777109), talazoparib (NSC765396), olaparib (NSC753686), selinexor (NSC780203), nedisertib (M3814, NSC802822), bortezomib (NSC756655), venetoclax (NSC766270), doxorubicin (NSC123127), elimusertib (BAY189344, NSC800525), ceralasertib (AZD6738, NSC777638), TAK-243 (NSC785004), alisertib (NSC759677), etoposide (NSC141540), topotecan (NSC609699), eribulin (NSC707389), gemcitabine (NSC613327), carboplatin (NSC241240), cisplatin (NSC119875), and SN-38 (NSC673596) were obtained from the National Cancer Institute (NCI) Developmental Therapeutics Program Chemical Repository (32). The FDA-approved anticancer drug set is available from the Developmental Therapeutics Program at https://dtp.cancer.gov/organization/dscb/obtaining/available plates.htm. […] The stock solutions were prepared in dimethyl sulfoxide (DMSO, Sigma-Aldrich, St. Louis, MO, cat. D2650), except for the platinum compounds which were prepared in saline (Quality Biological, Gaithersburg, MD, cat. 114-055-101), at 800-fold the tested concentration and stored at -70 degrees C prior to their use. All drugs and investigational agents were tested over a range starting from a high concentration at or near the clinical Cmax and decreasing in half-log increments. If the clinical Cmax for an agent had not been determined, the highest concentration tested was 10 microM (Table 1).
Cell Culture. All cells were maintained in an incubator at 37 degrees C and 5% CO2 with 95% humidity. The PDC lines were cultured according to standard operating procedures established by the NCI PDMR (https://pdmr.cancer.gov). Briefly, all PDCs were thawed and cultured in Matrigel-coated flasks prepared with a working solution of 1X Ham's F-12 nutrient mix, without supplementation (Invitrogen, Waltham, MA, cat. 11765054), 100 U/mL penicillin-streptomycin (Invitrogen, cat. 15140122), and 2.5% Matrigel (Corning Inc., Corning, NY, cat. 354248) for the first three passages. All PDCs were cultured in complete DMEM/F-12 media containing advanced DMEM/F-12 (Invitrogen, cat. 12634028), 4.9% defined fetal bovine serum, heat inactivated (HyClone Laboratories Inc., Logan, UT, cat. SH30070.03HI), 389 ng/mL hydrocortisone (Sigma-Aldrich, cat. H4001), 9.7 ng/mL human EGF recombinant protein (Invitrogen, cat. PHG0313), 23.4 microg/mL adenine (Sigma-Aldrich, cat. A2786), 97.3 U/mL penicillin-streptomycin (Invitrogen, cat. 15140122), 1.9 mM L-glutamine (Invitrogen, cat. 25030081), and 9.7 microM Y-27632 dihydrochloride (Tocris Bioscience, Bristol, United Kingdom, cat. 1254). The PDCs were cultured in complete DMEM/F12 media without 10 microM Y-27632 dihydrochloride for at least two passages prior to the screen. The established cell lines NCI-H1341 and […] were cultured in DMEM/F-12, HEPES (Invitrogen, cat. 11330032), 5% defined fetal bovine serum (HyClone Laboratories Inc., cat. SH30070.03), ITS premix universal culture supplement [insulin (5 microg/mL), transferrin (5 microg/mL), and selenious acid (5 ng/mL)] […]

[1] = curve of first compound, second compound 0.1 µM
[2] = curve of first compound, second compound 0.316 µM
[3] = curve of first compound, second compound 1 µM
[4] = curve of first compound, second compound 3.16 µM
[5] = curve of first compound, second compound 10 µM
[6] = second compound 0.1 µM, first compound 0.0316 µM
[7] = second compound 0.1 µM, first compound 0.1 µM
[8] = second compound 0.1 µM, first compound 0.316 µM
[9] = second compound 0.1 µM, first compound 1 µM
[10] = second compound 0.1 µM, first compound 3.16 µM
[11] = second compound 0.1 µM, first compound 10 µM
[12] = second compound 0.316 µM, first compound 0.0316 µM
[13] = second compound 0.316 µM, first compound 0.1 µM
[14] = second compound 0.316 µM, first compound 0.316 µM
[15] = second compound 0.316 µM, first compound 1 µM
[16] = second compound 0.316 µM, first compound 3.16 µM
[17] = second compound 0.316 µM, first compound 10 µM
[18] = second compound 1 µM, first compound 0.0316 µM
[19] = second compound 1 µM, first compound 0.1 µM
[20] = second compound 1 µM, first compound 0.316 µM
[21] = second compound 1 µM, first compound 1 µM
[22] = second compound 1 µM, first compound 3.16 µM
[23] = second compound 1 µM, first compound 10 µM
[24] = second compound 3.16 µM, first compound 0.0316 µM
[25] = second compound 3.16 µM, first compound 0.1 µM
[26] = second compound 3.16 µM, first compound 0.316 µM
[27] = second compound 3.16 µM, first compound 1 µM
[28] = second compound 3.16 µM, first compound 3.16 µM
[29] = second compound 3.16 µM, first compound 10 µM
[30] = second compound 10 µM, first compound 0.0316 µM
[31] = second compound 10 µM, first compound 0.1 µM
[32] = second compound 10 µM, first compound 0.316 µM
[33] = second compound 10 µM, first compound 1 µM
[34] = second compound 10 µM, first compound 3.16 µM
[35] = second compound 10 µM, first compound 10 µM
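Further: spheroids exposed to agents for seven days.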

Nc1ccn(C2OC(CO)C(O)C2(F)F)c(=O)n1 (stereo not drawn)
inactive: viability, T/C (compound 0.0316 µM) 69.1% and 74.2% and 70.3% | viability, T/C (compound 0.1 µM) 63.2% and 70.2% and 62.9% | viability, T/C (compound 0.316 µM) 50.8% and 61.3% and 51.9% | viability, T/C (compound 1 µM) 41.5% and 56.2% and 43.5% | viability, T/C (compound 3.16 µM) 37.6% and 50.8% and 41.3% | viability, T/C (compound 10 µM) 32.7% and 46.7% and 36.1%

COc1cccc2c1C(=O)c1c(O)c3c(c(O)c1C2=O)CC(O)(C(=O)CO)CC3OC1CC(N)C(O)C(C)O1 (stereo not drawn) + CC(CO)NC(=O)c1cc(-c2ccc(Cl)cc2)nn(-c2cnn(C)c2)c1=O
167 nM: IC50 [4]
124 nM: IC50 [2]
inactive: viability, T/C [6] 60.7% | viability, T/C [7] 53% | viability, T/C [8] 35% | viability, T/C [9] 11.7% | viability, T/C [10] 6.06% | viability, T/C [11] 19.9% | viability, T/C [12] 62.3% | viability, T/C [13] 52.8% | viability, T/C [14] 31.1% | viability, T/C [15] 10.4% | viability, T/C [16] 4.91% | viability, T/C [17] 20.9% | viability, T/C [18] 71% | viability, T/C [19] 57% | viability, T/C [20] 33% | viability, T/C [21] 11.2% | viability, T/C [22] 4.47% | viability, T/C [23] 18.9% | viability, T/C [24] 62.9% | viability, T/C [25] 49.5% | viability, T/C [26] 42.3% | viability, T/C [27] 6.87% | viability, T/C [28] 7.41% | viability, T/C [29] 20.7% | viability, T/C [30] 73.4% | viability, T/C [31] 54.6% | viability, T/C [32] 31.8% | viability, T/C [33] 5.67% | viability, T/C [34] 9.25% | viability, T/C [35] 21.4%
144 nM: IC50 [3]
136 nM: IC50 [1]
131 nM: IC50 [5]

CCc1c2c(nc3ccc(O)cc13)-c1cc3c(c(=O)n1C2)COC(=O)[C@]3(O)CC + Cc1cncc(-c2nc(NCCc3c[nH]c4ccccc34)c3ncn(C(C)C)c3n2)c1
5.21 nM: IC50 [4]
4.17 nM: IC50 [3]
active: viability, T/C (second compound 10 µM, first compound 0.3 µM) 8.25%
inactive: viability, T/C (second compound 0.1 µM, first compound 0.000949 µM) 62.3% | viability, T/C (second compound 0.1 µM, first compound 0.003 µM) 56.1% | viability, T/C (second compound 0.1 µM, first compound 0.00949 µM) 38.4% | viability, T/C (second compound 0.1 µM, first compound 0.03 µM) 27.4% | viability, T/C (second compound 0.1 µM, first compound 0.0949 µM) 19.4% | viability, T/C (second compound 0.1 µM, first compound 0.3 µM) 13.7% | viability, T/C (second compound 0.316 µM, first compound 0.000949 µM) 59.1% | viability, T/C (second compound 0.316 µM, first compound 0.003 µM) 50.6% | viability, T/C (second compound 0.316 µM, first compound 0.00949 µM) 39.1% | viability, T/C (second compound 0.316 µM, first compound 0.03 µM) 26.2% | viability, T/C (second compound 0.316 µM, first compound 0.0949 µM) 18.3% | viability, T/C (second compound 0.316 µM, first compound 0.3 µM) 13% | viability, T/C (second compound 1 µM, first compound 0.000949 µM) 67.2% | viability, T/C (second compound 1 µM, first compound 0.003 µM) 55% | viability, T/C (second compound 1 µM, first compound 0.00949 µM) 38.5% | viability, T/C (second compound 1 µM, first compound 0.03 µM) 28.1% | viability, T/C (second compound 1 µM, first compound 0.0949 µM) 19.4% | viability, T/C (second compound 1 µM, first compound 0.3 µM) 13.6% | viability, T/C (second compound 3.16 µM, first compound 0.000949 µM) 58% | viability, T/C (second compound 3.16 µM, first compound 0.003 µM) 58.1% | viability, T/C (second compound 3.16 µM, first compound 0.00949 µM) 42.6% | viability, T/C (second compound 3.16 µM, first compound 0.03 µM) 28% | viability, T/C (second compound 3.16 µM, first compound 0.0949 µM) 18.8% | viability, T/C (second compound 3.16 µM, first compound 0.3 µM) 12.3% | viability, T/C (second compound 10 µM, first compound 0.000949 µM) 36.4% | viability, T/C (second compound 10 µM, first compound 0.003 µM) 32.3% | viability, T/C (second compound 10 µM, first compound 0.00949 µM) 25.5% | viability, T/C (second compound 10 µM, first compound 0.03 µM) 16% | viability, T/C (second compound 10 µM, first compound 0.0949 µM) 11.2%
3.22 nM: IC50 [2]
< 0.949 nM: IC50 [5]
4.27 nM: IC50 [1]

O=C(c1cc(Cc2n[nH]c(=O)c3ccccc23)ccc1F)N1CCN(C(=O)C2CC2)CC1
> 10000 nM: IC50 (curve of compound)
inactive: viability, T/C (compound 0.0316 µM) 107% and 92.7% and 109% | viability, T/C (compound 0.1 µM) 102% and 99.8% and 95.5% | viability, T/C (compound 0.316 µM) 96.7% and 98.2% and 106% | viability, T/C (compound 1 µM) 98.8% and 93.7% and 86.1% | viability, T/C (compound 3.16 µM) 97.4% and 95.6% and 95.2% | viability, T/C (compound 10 µM) 86% and 84.6% and 77.5%

CC1(C)CCC(CN2CCN(c3ccc(C(=O)NS(=O)(=O)c4ccc(NCC5CCOCC5)c([N+](=O)[O-])c4)c(Oc4cnc5[nH]ccc5c4)c3)CC2)=C(c2ccc(Cl)cc2)C1 + CC(CO)NC(=O)c1cc(-c2ccc(Cl)cc2)nn(-c2cnn(C)c2)c1=O
inactive: viability, T/C [6] 105% | viability, T/C [7] 101% | viability, T/C [8] 99.6% | viability, T/C [9] 94.1% | viability, T/C [10] 108% | viability, T/C [11] 71.2% | viability, T/C [12] 98% | viability, T/C [13] 101% | viability, T/C [14] 103% | viability, T/C [15] 89.8% | viability, T/C [16] 94% | viability, T/C [17] 71% | viability, T/C [18] 90.8% | viability, T/C [19] 104% | viability, T/C [20] 107% | viability, T/C [21] 98.4% | viability, T/C [22] 103% | viability, T/C [23] 80.3% | viability, T/C [24] 96.2% | viability, T/C [25] 101% | viability, T/C [26] 106% | viability, T/C [27] 108% | viability, T/C [28] 95.3% | viability, T/C [29] 75.1% | viability, T/C [30] 99% | viability, T/C [31] 107% | viability, T/C [32] 111% | viability, T/C [33] 105% | viability, T/C [34] 92.5% | viability, T/C [35] 74.5%
> 10000 nM: IC50 [1] | IC50 [2] | IC50 [3] | IC50 [4] | IC50 [5]
